Measured values reported in PubChem BioAssay AID1259407 (Chemical Carcinogenesis Research Information System (CCRIS), 2018).
Activity calls are given as the source filed them. How the calls were made is not given here.

Tested on: CCRIS mutagenicity, Ames/micronucleus/aberration tests
Test: CCRIS mutagenicity studies
[1] = Test System: AMES SALMONELLA TYPHIMURIUM, Strain/Indicator: TA100, Metabolic Activation: NONE, Method: PREINCUBATION
[2] = Test System: AMES SALMONELLA TYPHIMURIUM, Strain/Indicator: TA98, Metabolic Activation: NONE, Method: STANDARD PLATE
[3] = Test System: AMES SALMONELLA TYPHIMURIUM, Strain/Indicator: TA100, Metabolic Activation: NONE, Method: STANDARD PLATE
[4] = Test System: AMES SALMONELLA TYPHIMURIUM, Strain/Indicator: TA1535, Metabolic Activation: NONE, Method: STANDARD PLATE
[5] = Test System: AMES SALMONELLA TYPHIMURIUM, Strain/Indicator: TA1537, Metabolic Activation: NONE, Method: STANDARD PLATE

## CCN(CC)c1ccc(N=O)c(O)c1
Test System: AMES SALMONELLA TYPHIMURIUM, Strain/Indicator: TA97, Metabolic Activation: HAMSTER, LIVER, S-9, AROCLOR 1254 (10%), Method: PREINCUBATION
  mutagenic call: inactive; negative
Test System: AMES SALMONELLA TYPHIMURIUM, Strain/Indicator: TA97, Metabolic Activation: HAMSTER, LIVER, S-9, AROCLOR 1254 (30%), Method: PREINCUBATION
  mutagenic call: inactive; negative
Test System: AMES SALMONELLA TYPHIMURIUM, Strain/Indicator: TA97, Metabolic Activation: NONE, Method: PREINCUBATION
  mutagenic call: inactive; negative
Test System: AMES SALMONELLA TYPHIMURIUM, Strain/Indicator: TA97, Metabolic Activation: RAT, LIVER, S-9, AROCLOR 1254 (10%), Method: PREINCUBATION
  mutagenic call: inactive; negative
Test System: AMES SALMONELLA TYPHIMURIUM, Strain/Indicator: TA97, Metabolic Activation: RAT, LIVER, S-9, AROCLOR 1254 (30%), Method: PREINCUBATION
  mutagenic call: inactive; negative
Test System: AMES SALMONELLA TYPHIMURIUM, Strain/Indicator: TA98, Metabolic Activation: HAMSTER, LIVER, S-9, AROCLOR 1254 (5 OR 10%), Method: PREINCUBATION
  mutagenic call: inactive; negative
Test System: AMES SALMONELLA TYPHIMURIUM, Strain/Indicator: TA98, Metabolic Activation: HAMSTER, LIVER, S-9, AROCLOR 1254 (30%), Method: PREINCUBATION
  mutagenic call: inactive; negative
Test System: AMES SALMONELLA TYPHIMURIUM, Strain/Indicator: TA98, Metabolic Activation: NONE, Method: PREINCUBATION
  mutagenic call: inactive; negative
Test System: AMES SALMONELLA TYPHIMURIUM, Strain/Indicator: TA98, Metabolic Activation: RAT, LIVER, S-9, AROCLOR 1254 (5 OR 10%), Method: PREINCUBATION
  mutagenic call: inactive; negative
Test System: AMES SALMONELLA TYPHIMURIUM, Strain/Indicator: TA98, Metabolic Activation: RAT, LIVER, S-9, AROCLOR 1254 (30%), Method: PREINCUBATION
  mutagenic call: inactive; negative
Test System: AMES SALMONELLA TYPHIMURIUM, Strain/Indicator: TA100, Metabolic Activation: HAMSTER, LIVER, S-9, AROCLOR 1254 (10%), Method: PREINCUBATION
  mutagenic call: inactive; negative
Test System: AMES SALMONELLA TYPHIMURIUM, Strain/Indicator: TA100, Metabolic Activation: HAMSTER, LIVER, S-9, AROCLOR 1254 (30%), Method: PREINCUBATION
  mutagenic call: inactive; negative
[1]
  mutagenic call: inactive; negative
Test System: AMES SALMONELLA TYPHIMURIUM, Strain/Indicator: TA100, Metabolic Activation: RAT, LIVER, S-9, AROCLOR 1254 (10%), Method: PREINCUBATION
  mutagenic call: inactive; negative
Test System: AMES SALMONELLA TYPHIMURIUM, Strain/Indicator: TA100, Metabolic Activation: RAT, LIVER, S-9, AROCLOR 1254 (30%), Method: PREINCUBATION
  mutagenic call: inactive; negative
Test System: AMES SALMONELLA TYPHIMURIUM, Strain/Indicator: TA1535, Metabolic Activation: HAMSTER, LIVER, S-9, AROCLOR 1254 (10%), Method: PREINCUBATION
  mutagenic call: inactive; negative
Test System: AMES SALMONELLA TYPHIMURIUM, Strain/Indicator: TA1535, Metabolic Activation: HAMSTER, LIVER, S-9, AROCLOR 1254 (30%), Method: PREINCUBATION
  mutagenic call: inactive; negative
Test System: AMES SALMONELLA TYPHIMURIUM, Strain/Indicator: TA1535, Metabolic Activation: NONE, Method: PREINCUBATION
  mutagenic call: inactive; negative
Test System: AMES SALMONELLA TYPHIMURIUM, Strain/Indicator: TA1535, Metabolic Activation: RAT, LIVER, S-9, AROCLOR 1254 (10%), Method: PREINCUBATION
  mutagenic call: inactive; negative
Test System: AMES SALMONELLA TYPHIMURIUM, Strain/Indicator: TA1535, Metabolic Activation: RAT, LIVER, S-9, AROCLOR 1254 (30%), Method: PREINCUBATION
  mutagenic call: inactive; negative
Test System: AMES SALMONELLA TYPHIMURIUM, Strain/Indicator: TA1537, Metabolic Activation: HAMSTER, LIVER, S-9, AROCLOR 1254 (30%), Method: PREINCUBATION
  mutagenic call: inactive; negative
Test System: AMES SALMONELLA TYPHIMURIUM, Strain/Indicator: TA1537, Metabolic Activation: NONE, Method: PREINCUBATION
  mutagenic call: inactive; negative
Test System: AMES SALMONELLA TYPHIMURIUM, Strain/Indicator: TA1537, Metabolic Activation: RAT, LIVER, S-9, AROCLOR 1254 (30%), Method: PREINCUBATION
  mutagenic call: inactive; negative
Test System: AMES SALMONELLA TYPHIMURIUM, Strain/Indicator: TA1538, Metabolic Activation: HAMSTER, LIVER, S-9, AROCLOR 1254 (10%), Method: PREINCUBATION
  mutagenic call: inactive; negative
Test System: AMES SALMONELLA TYPHIMURIUM, Strain/Indicator: TA1538, Metabolic Activation: HAMSTER, LIVER, S-9, AROCLOR 1254 (30%), Method: PREINCUBATION
  mutagenic call: inactive; negative
Test System: AMES SALMONELLA TYPHIMURIUM, Strain/Indicator: TA1538, Metabolic Activation: NONE, Method: PREINCUBATION
  mutagenic call: inactive; negative
Test System: AMES SALMONELLA TYPHIMURIUM, Strain/Indicator: TA1538, Metabolic Activation: RAT, LIVER, S-9, AROCLOR 1254 (10 OR 30%), Method: PREINCUBATION
  mutagenic call: inactive; negative

## CC(=O)Nc1snc2ccc(Cl)cc12
[2]
  mutagenic call: inactive; negative
Test System: AMES SALMONELLA TYPHIMURIUM, Strain/Indicator: TA98, Metabolic Activation: S-9, Method: STANDARD PLATE
  mutagenic call: inactive; negative
[3]
  mutagenic call: inactive; negative
Test System: AMES SALMONELLA TYPHIMURIUM, Strain/Indicator: TA100, Metabolic Activation: S-9, Method: STANDARD PLATE
  mutagenic call: active; positive
[4]
  mutagenic call: inactive; negative
Test System: AMES SALMONELLA TYPHIMURIUM, Strain/Indicator: TA1535, Metabolic Activation: S-9, Method: STANDARD PLATE
  mutagenic call: inactive; negative
[5]
  mutagenic call: inactive; negative
Test System: AMES SALMONELLA TYPHIMURIUM, Strain/Indicator: TA1537, Metabolic Activation: S-9, Method: STANDARD PLATE
  mutagenic call: active; positive

## CCC1C(=O)O[C@@H]2CCN(C)C/C=C(/COC(=O)[C@](C)(O)[C@H](C)[C@@H]1O)C2=O (stereo not given in full)
Test System: UDS RAT HEPATOCYTES, Strain/Indicator: THY INCORP, Metabolic Activation: NONE, Method: AUTORADIOGRAPHY
  mutagenic call: active; positive

## COC12OOC1(C)Oc1ccccc12 (stereo not given)
[1]
  mutagenic call: active; positive

## C[Si]1(C)O[Si](C)(C)O[Si](C)(C)O[Si](C)(C)O[Si](C)(C)O1
[2]
  mutagenic call: inactive; negative
Test System: AMES SALMONELLA TYPHIMURIUM, Strain/Indicator: TA98, Metabolic Activation: RAT LIVER S-9, AROCLOR 1254, Method: STANDARD PLATE
  mutagenic call: inactive; negative
[3]
  mutagenic call: inactive; negative
Test System: AMES SALMONELLA TYPHIMURIUM, Strain/Indicator: TA100, Metabolic Activation: RAT LIVER S-9, AROCLOR 1254, Method: STANDARD PLATE
  mutagenic call: inactive; negative
[4]
  mutagenic call: inactive; negative
Test System: AMES SALMONELLA TYPHIMURIUM, Strain/Indicator: TA1535, Metabolic Activation: RAT LIVER S-9, AROCLOR 1254, Method: STANDARD PLATE
  mutagenic call: inactive; negative
[5]
  mutagenic call: inactive; negative
Test System: AMES SALMONELLA TYPHIMURIUM, Strain/Indicator: TA1537, Metabolic Activation: RAT LIVER S-9, AROCLOR 1254, Method: STANDARD PLATE
  mutagenic call: inactive; negative
Test System: AMES SALMONELLA TYPHIMURIUM, Strain/Indicator: TA1538, Metabolic Activation: NONE, Method: STANDARD PLATE
  mutagenic call: inactive; negative
Test System: AMES SALMONELLA TYPHIMURIUM, Strain/Indicator: TA1538, Metabolic Activation: RAT LIVER S-9, AROCLOR 1254, Method: STANDARD PLATE
  mutagenic call: inactive; negative
Test System: E. COLI, Strain/Indicator: P3078 POLA, Metabolic Activation: NONE, Method: SPOT TEST
  mutagenic call: inactive; negative
Test System: E. COLI, Strain/Indicator: P3078 POLA, Metabolic Activation: RAT LIVER S-9, AROCLOR 1254, Method: SPOT TEST
  mutagenic call: inactive; negative
Test System: E. COLI, Strain/Indicator: W3110, Metabolic Activation: NONE, Method: SPOT TEST
  mutagenic call: inactive; negative
Test System: E. COLI, Strain/Indicator: W3110, Metabolic Activation: RAT LIVER S-9, AROCLOR 1254, Method: SPOT TEST
  mutagenic call: inactive; negative
Test System: MOUSE LYMPHOMA, Strain/Indicator: L5178Y (TK+/TK-), Metabolic Activation: NONE, Method: SUSPENSION/PLATE
  mutagenic call: inactive; negative
Test System: MOUSE LYMPHOMA, Strain/Indicator: L5178Y (TK+/TK-), Metabolic Activation: RAT, LIVER, S-9, Method: SUSPENSION/PLATE
  mutagenic call: inactive; negative

## CN1CC[C@H](c2c(O)cc(O)c3c(=O)cc(-c4ccccc4Cl)oc23)[C@H](O)C1
Test System: Mouse lymphoma, Strain/Indicator: L5178Y (tk+/tk-), Metabolic Activation: None, Method: Suspension/plate
  mutagenic call: inactive; negative
Test System: Mouse lymphoma, Strain/Indicator: L5178Y (tk+/tk-), Metabolic Activation: Rat, Liver, S-9, Aroclor 1254, Method: Suspension/plate
  mutagenic call: active; inconclusive (previous evaluation positive)
